Data from ChEMBL document CHEMBL6127034, “Design, synthesis and biological evaluation of a novel PAK1 degrader for the treatment of triple negative breast cancer” (Bioorg Med Chem, 2024).

Columns and labels:
[1] = molecular target: T1, von Hippel-Lindau disease tumor suppressor/Serine/threonine-protein kinase PAK 1 (Homo sapiens, UniProt Q13153+P40337); assay: PROTAC activity at VHL/PAK1 in human MDA-MB-231 cells assessed as fold change in protein expression at 2.5 uM incubated for 48 hrs by Western blot analysis relative to control; format: cell-based
T1 sequence (Q13153 2-545 limits assumed): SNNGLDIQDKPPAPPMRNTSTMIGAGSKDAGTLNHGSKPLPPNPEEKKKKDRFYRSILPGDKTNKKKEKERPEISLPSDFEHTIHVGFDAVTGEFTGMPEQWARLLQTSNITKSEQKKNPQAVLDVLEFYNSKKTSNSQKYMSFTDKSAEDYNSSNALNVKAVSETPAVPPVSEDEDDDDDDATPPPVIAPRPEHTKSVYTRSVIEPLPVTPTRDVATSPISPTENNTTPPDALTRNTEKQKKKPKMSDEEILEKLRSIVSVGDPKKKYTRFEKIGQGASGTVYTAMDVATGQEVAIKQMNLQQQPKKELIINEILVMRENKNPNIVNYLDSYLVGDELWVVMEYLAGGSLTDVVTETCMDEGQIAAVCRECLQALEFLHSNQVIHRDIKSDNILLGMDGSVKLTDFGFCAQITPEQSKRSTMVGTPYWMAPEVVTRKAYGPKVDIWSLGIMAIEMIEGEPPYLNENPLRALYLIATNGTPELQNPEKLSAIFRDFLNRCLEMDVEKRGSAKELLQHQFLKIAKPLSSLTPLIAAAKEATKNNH
T1 sequence (P40337 whole entry partner): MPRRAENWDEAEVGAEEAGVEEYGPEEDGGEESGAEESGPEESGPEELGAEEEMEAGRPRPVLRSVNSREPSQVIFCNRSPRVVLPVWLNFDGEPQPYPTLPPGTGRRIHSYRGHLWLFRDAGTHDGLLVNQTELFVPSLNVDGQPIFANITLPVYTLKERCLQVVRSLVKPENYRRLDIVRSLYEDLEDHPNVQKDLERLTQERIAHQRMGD

[2] = molecular target: T1, von Hippel-Lindau disease tumor suppressor/Serine/threonine-protein kinase PAK 1; assay: PROTAC activity at VHL/PAK1 in human MDA-MB-231 cells assessed as induction of protein degradation at 2.5 uM incubated for 48 hrs by Western blot analysis relative to control; format: cell-based
MDA-MB-231 = assay: Antiproliferative activity against human MDA-MB-231 cells incubated for 48 hrs by MTT assay; format: functional, cell-based; settings: MDA-MB-231, 48 h
[3] = molecular target: T2, Protein cereblon/Serine/threonine-protein kinase PAK 1 (Homo sapiens) (UniProt Q13153+Q96SW2); assay: PROTAC activity at CRBN/PAK1 in human MDA-MB-231 cells assessed as induction of protein degradation at 0.1 uM incubated for 48 hrs by Western blot analysis relative to control; format: cell-based
T2 sequence (Q13153 whole entry, looked up): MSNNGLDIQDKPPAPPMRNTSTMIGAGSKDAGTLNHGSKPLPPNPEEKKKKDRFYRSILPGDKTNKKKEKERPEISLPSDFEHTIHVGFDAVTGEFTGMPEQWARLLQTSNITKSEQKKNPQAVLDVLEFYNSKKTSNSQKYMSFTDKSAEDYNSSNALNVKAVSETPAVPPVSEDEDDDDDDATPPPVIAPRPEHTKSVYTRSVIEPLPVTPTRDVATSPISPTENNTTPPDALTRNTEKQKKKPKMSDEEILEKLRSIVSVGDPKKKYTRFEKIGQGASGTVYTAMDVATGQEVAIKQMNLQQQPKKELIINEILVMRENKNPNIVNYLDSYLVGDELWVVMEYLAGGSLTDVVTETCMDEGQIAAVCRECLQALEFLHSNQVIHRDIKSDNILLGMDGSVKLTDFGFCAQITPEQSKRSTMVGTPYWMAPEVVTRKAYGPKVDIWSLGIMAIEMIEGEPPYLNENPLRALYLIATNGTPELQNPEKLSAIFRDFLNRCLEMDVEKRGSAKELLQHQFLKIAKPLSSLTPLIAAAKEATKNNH
T2 sequence (Q96SW2 whole entry, looked up): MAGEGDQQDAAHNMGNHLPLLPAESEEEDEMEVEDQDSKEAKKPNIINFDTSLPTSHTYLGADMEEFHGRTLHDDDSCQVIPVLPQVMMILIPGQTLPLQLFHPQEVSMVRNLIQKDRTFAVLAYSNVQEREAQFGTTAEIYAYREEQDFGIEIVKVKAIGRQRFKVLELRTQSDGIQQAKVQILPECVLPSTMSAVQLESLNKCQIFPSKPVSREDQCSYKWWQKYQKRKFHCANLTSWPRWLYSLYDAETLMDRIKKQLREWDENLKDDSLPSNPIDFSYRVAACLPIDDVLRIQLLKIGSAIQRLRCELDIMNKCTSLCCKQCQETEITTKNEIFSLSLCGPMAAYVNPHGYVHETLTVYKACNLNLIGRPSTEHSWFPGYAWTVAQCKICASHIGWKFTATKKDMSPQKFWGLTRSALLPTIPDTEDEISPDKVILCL

[4] = molecular target: T2, Protein cereblon/Serine/threonine-protein kinase PAK 1 (Homo sapiens); assay: PROTAC activity at CRBN/PAK1 in human MDA-MB-231 cells assessed as induction of protein degradation at 2.5 uM incubated for 48 hrs by Western blot analysis relative to control; format: cell-based
[5] = molecular target: T2, Protein cereblon/Serine/threonine-protein kinase PAK 1 (Homo sapiens); assay: PROTAC activity at CRBN/PAK1 in human MDA-MB-231 cells assessed as fold change in protein expression at 2.5 uM incubated for 48 hrs by Western blot analysis relative to control; format: cell-based
[6] = molecular target: T1, von Hippel-Lindau disease tumor suppressor/Serine/threonine-protein kinase PAK 1; assay: PROTAC activity at VHL/PAK1 in human MDA-MB-231 cells assessed as induction of protein degradation at 0.1 uM incubated for 48 hrs by Western blot analysis relative to control; format: cell-based

SMILES	fold change (FC) [1]	Activity [2] [%]	IC50 (MDA-MB-231) [µM]	Activity [3] [%]	Activity [4] [%]	fold change (FC) [5]	Activity [6] [%]
Cc1ncsc1-c1ccc([C@H](C)NC(=O)[C@@H]2C[C@@H](O)CN2C(=O)[C@@H](NC(=O)CCCCc2cn(CCCCCCCn3c(=O)c(-c4ccc(Cl)cc4Cl)cc4cnc(NC5CC5)nc43)nn2)C(C)(C)C)cc1	0.812	18.2	> 50	–	–	–	–
Cc1ncsc1-c1ccc([C@H](C)NC(=O)[C@@H]2C[C@@H](O)CN2C(=O)[C@@H](NC(=O)CCCCc2cn(CCCCCCn3c(=O)c(-c4ccc(Cl)cc4Cl)cc4cnc(NC5CC5)nc43)nn2)C(C)(C)C)cc1	0.754	24.6	> 50	–	–	–	–
CNc1ncc2cc(-c3ccc(Cl)cc3Cl)c(=O)n(CCOCCOCCOCCn3cc(CNc4cccc5c4C(=O)N(C4CCC(=O)NC4=O)C5=O)nn3)c2n1 (stereo not given)	–	–	> 50	–	1.2	0.988	–
O=C1CCC(N2C(=O)c3cccc(NCc4cn(CCCCCCCn5c(=O)c(-c6ccc(Cl)cc6Cl)cc6cnc(NC7CC7)nc65)nn4)c3C2=O)C(=O)N1 (stereo not given)	–	–	7.35	18.3	56.1	0.44	–
Cc1ncsc1-c1ccc([C@H](C)NC(=O)[C@@H]2C[C@@H](O)CN2C(=O)[C@@H](NC(=O)CCCc2cn(CCCCCCCn3c(=O)c(-c4ccc(Cl)cc4Cl)cc4cnc(NC5CC5)nc43)nn2)C(C)(C)C)cc1	0.318	68.2	2.01	–	–	–	41
Cc1ncsc1-c1ccc([C@H](C)NC(=O)[C@@H]2C[C@@H](O)CN2C(=O)[C@@H](NC(=O)CCc2cn(CCCCn3c(=O)c(-c4ccc(Cl)cc4Cl)cc4cnc(NC5CC5)nc43)nn2)C(C)(C)C)cc1	0.896	10.4	> 50	–	–	–	–
O=C1CCC(N2C(=O)c3cccc(NCc4cn(CCOCCOCCOCCn5c(=O)c(-c6ccc(Cl)cc6Cl)cc6cnc(NC7CC7)nc65)nn4)c3C2=O)C(=O)N1 (stereo not given)	–	–	> 50	–	-6.9	1.07	–
Cc1ncsc1-c1ccc([C@H](C)NC(=O)[C@@H]2C[C@@H](O)CN2C(=O)[C@@H](NC(=O)CCCCc2cn(CCOCCOCCOCCn3c(=O)c(-c4ccc(Cl)cc4Cl)cc4cnc(NC5CC5)nc43)nn2)C(C)(C)C)cc1	0.88	12	> 50	–	–	–	–
Cc1ncsc1-c1ccc([C@H](C)NC(=O)[C@@H]2C[C@@H](O)CN2C(=O)[C@@H](NC(=O)CCc2cn(CCOCCn3c(=O)c(-c4ccc(Cl)cc4Cl)cc4cnc(NC5CC5)nc43)nn2)C(C)(C)C)cc1	0.557	44.3	16.9	–	–	–	15.7
Cc1ncsc1-c1ccc([C@H](C)NC(=O)[C@@H]2C[C@@H](O)CN2C(=O)[C@@H](NC(=O)CCc2cn(CCCCCn3c(=O)c(-c4ccc(Cl)cc4Cl)cc4cnc(NC5CC5)nc43)nn2)C(C)(C)C)cc1	0.826	17.4	> 50	–	–	–	–
CNc1ncc2cc(-c3ccc(Cl)cc3Cl)c(=O)n(CCCCCCn3cc(CNc4cccc5c4C(=O)N(C4CCC(=O)NC4=O)C5=O)nn3)c2n1 (stereo not given)	–	–	25.8	15.3	41.7	0.653	–
CNc1ncc2cc(-c3ccc(Cl)cc3Cl)c(=O)n(CCCCCn3cc(CNc4cccc5c4C(=O)N(C4CCC(=O)NC4=O)C5=O)nn3)c2n1 (stereo not given)	–	–	> 50	–	-5.4	0.97	–
O=C1CCC(N2C(=O)c3cccc(NCc4cn(CCCCCCn5c(=O)c(-c6ccc(Cl)cc6Cl)cc6cnc(NC7CC7)nc65)nn4)c3C2=O)C(=O)N1 (stereo not given)	–	–	32.1	–	34.7	0.761	–
Cc1ncsc1-c1ccc([C@H](C)NC(=O)[C@@H]2C[C@@H](O)CN2C(=O)[C@@H](NC(=O)CCc2cn(CCOCCOCCOCCn3c(=O)c(-c4ccc(Cl)cc4Cl)cc4cnc(NC5CC5)nc43)nn2)C(C)(C)C)cc1	0.929	7.1	> 50	–	–	–	–
O=C1CCC(N2C(=O)c3cccc(NCc4cn(CCCCn5c(=O)c(-c6ccc(Cl)cc6Cl)cc6cnc(NC7CC7)nc65)nn4)c3C2=O)C(=O)N1 (stereo not given)	–	–	34.6	–	23.9	0.761	–
O=C1CCC(N2C(=O)c3cccc(NCc4cn(CCOCCn5c(=O)c(-c6ccc(Cl)cc6Cl)cc6cnc(NC7CC7)nc65)nn4)c3C2=O)C(=O)N1 (stereo not given)	–	–	> 50	–	1	0.99	–
Cc1ncsc1-c1ccc([C@H](C)NC(=O)[C@@H]2C[C@@H](O)CN2C(=O)[C@@H](NC(=O)CCCc2cn(CCOCCOCCOCCn3c(=O)c(-c4ccc(Cl)cc4Cl)cc4cnc(NC5CC5)nc43)nn2)C(C)(C)C)cc1	0.949	5.1	> 50	–	–	–	–
Cc1ncsc1-c1ccc([C@H](C)NC(=O)[C@@H]2C[C@@H](O)CN2C(=O)[C@@H](NC(=O)CCCc2cn(CCCCCCn3c(=O)c(-c4ccc(Cl)cc4Cl)cc4cnc(NC5CC5)nc43)nn2)C(C)(C)C)cc1	0.709	29.1	> 50	–	–	–	–
Cc1ncsc1-c1ccc([C@H](C)NC(=O)[C@@H]2C[C@@H](O)CN2C(=O)[C@@H](NC(=O)CCCCc2cn(CCOCCn3c(=O)c(-c4ccc(Cl)cc4Cl)cc4cnc(NC5CC5)nc43)nn2)C(C)(C)C)cc1	0.699	30.1	35.8	–	–	–	–
Cc1ncsc1-c1ccc([C@H](C)NC(=O)[C@@H]2C[C@@H](O)CN2C(=O)[C@@H](NC(=O)CCCc2cn(CCOCCOCCn3c(=O)c(-c4ccc(Cl)cc4Cl)cc4cnc(NC5CC5)nc43)nn2)C(C)(C)C)cc1	0.973	2.7	> 50	–	–	–	–
O=C1CCC(N2C(=O)c3cccc(NCc4cn(CCOCCOCCn5c(=O)c(-c6ccc(Cl)cc6Cl)cc6cnc(NC7CC7)nc65)nn4)c3C2=O)C(=O)N1 (stereo not given)	–	–	> 50	–	23.9	1.05	–
Cc1ncsc1-c1ccc([C@H](C)NC(=O)[C@@H]2C[C@@H](O)CN2C(=O)[C@@H](NC(=O)CCCCc2cn(CCCCCn3c(=O)c(-c4ccc(Cl)cc4Cl)cc4cnc(NC5CC5)nc43)nn2)C(C)(C)C)cc1	0.43	57	5.47	–	–	–	27.4

Results, then the compound that gave them:

fold change (FC) [1]	Activity [2] [%]	IC50 (MDA-MB-231) [µM]	Activity [3] [%]	Activity [4] [%]	fold change (FC) [5]	Activity [6] [%]	SMILES
–	–	18.9	23.1	45.5	0.545	–	CNc1ncc2cc(-c3ccc(Cl)cc3Cl)c(=O)n(CCCCCCCn3cc(CNc4cccc5c4C(=O)N(C4CCC(=O)NC4=O)C5=O)nn3)c2n1 (stereo not given)
0.679	32.1	33.2	–	–	–	–	Cc1ncsc1-c1ccc([C@H](C)NC(=O)[C@@H]2C[C@@H](O)CN2C(=O)[C@@H](NC(=O)CCCc2cn(CCCCn3c(=O)c(-c4ccc(Cl)cc4Cl)cc4cnc(NC5CC5)nc43)nn2)C(C)(C)C)cc1
–	–	> 50	–	19.2	0.809	–	O=C1CCC(N2C(=O)c3cccc(NCc4cn(CCCCCn5c(=O)c(-c6ccc(Cl)cc6Cl)cc6cnc(NC7CC7)nc65)nn4)c3C2=O)C(=O)N1 (stereo not given)
0.683	31.7	27.1	–	–	–	–	Cc1ncsc1-c1ccc([C@H](C)NC(=O)[C@@H]2C[C@@H](O)CN2C(=O)[C@@H](NC(=O)CCCc2cn(CCOCCn3c(=O)c(-c4ccc(Cl)cc4Cl)cc4cnc(NC5CC5)nc43)nn2)C(C)(C)C)cc1
0.856	14.4	> 50	–	–	–	–	Cc1ncsc1-c1ccc([C@H](C)NC(=O)[C@@H]2C[C@@H](O)CN2C(=O)[C@@H](NC(=O)CCCCc2cn(CCCCn3c(=O)c(-c4ccc(Cl)cc4Cl)cc4cnc(NC5CC5)nc43)nn2)C(C)(C)C)cc1
0.545	45.5	16.3	–	–	–	11.9	Cc1ncsc1-c1ccc([C@H](C)NC(=O)[C@@H]2C[C@@H](O)CN2C(=O)[C@@H](NC(=O)CCCc2cn(CCCCCn3c(=O)c(-c4ccc(Cl)cc4Cl)cc4cnc(NC5CC5)nc43)nn2)C(C)(C)C)cc1
1.05	-4.8	> 50	–	–	–	–	Cc1ncsc1-c1ccc([C@H](C)NC(=O)[C@@H]2C[C@@H](O)CN2C(=O)[C@@H](NC(=O)CCCCc2cn(CCOCCOCCn3c(=O)c(-c4ccc(Cl)cc4Cl)cc4cnc(NC5CC5)nc43)nn2)C(C)(C)C)cc1
–	–	> 50	–	2.8	0.583	–	CNc1ncc2cc(-c3ccc(Cl)cc3Cl)c(=O)n(CCCCn3cc(CNc4cccc5c4C(=O)N(C4CCC(=O)NC4=O)C5=O)nn3)c2n1 (stereo not given)
–	–	> 50	–	8.2	0.918	–	CNc1ncc2cc(-c3ccc(Cl)cc3Cl)c(=O)n(CCOCCn3cc(CNc4cccc5c4C(=O)N(C4CCC(=O)NC4=O)C5=O)nn3)c2n1 (stereo not given)
–	–	> 50	–	4.1	0.959	–	CNc1ncc2cc(-c3ccc(Cl)cc3Cl)c(=O)n(CCOCCOCCn3cc(CNc4cccc5c4C(=O)N(C4CCC(=O)NC4=O)C5=O)nn3)c2n1 (stereo not given)
0.329	67.1	3.78	–	–	–	39.1	Cc1ncsc1-c1ccc([C@H](C)NC(=O)[C@@H]2C[C@@H](O)CN2C(=O)[C@@H](NC(=O)CCc2cn(CCCCCCn3c(=O)c(-c4ccc(Cl)cc4Cl)cc4cnc(NC5CC5)nc43)nn2)C(C)(C)C)cc1
0.962	3.8	> 50	–	–	–	–	Cc1ncsc1-c1ccc([C@H](C)NC(=O)[C@@H]2C[C@@H](O)CN2C(=O)[C@@H](NC(=O)CCc2cn(CCOCCOCCn3c(=O)c(-c4ccc(Cl)cc4Cl)cc4cnc(NC5CC5)nc43)nn2)C(C)(C)C)cc1
